How the values were obtained:
[1] = system: SMN protein; assay: SMN cytoblot assay in SMA patient fibroblasts; format: cell-based, human; details: for SMN protein levels: SMA patient fibroblasts, cytoblot; for SMN per viable cell (normalized hit): SMN cytoblot relative to cell number estimated by Alamar blue
Method: One method for monitoring SMN protein levels in cells is through use of a cytoblot assay, in which cells are fixed and probed with an antibody against a target protein of interest.
Using the cytoblot assay, we can clearly distinguish SMN protein levels in patient (GM03813) versus carrier fibroblast cells (GM03814).
The SMN cytoblot protocol is described below.
• 1. Plate 50 μl per well of 300,000 cells/ml (15,000 cells per well) into Nunc white 384-well opaque-bottomed plates. • 2. Incubate plates at 37° C., 5% CO2 overnight. Day 2 • 1. Aspirate media from wells using Tecan plate washer. • 2. Fix cells by adding 20 μl/well of cold methanol (kept in −20° C. freezer). • 3. Incubate plates in 4° C. refrigerator for 10 minutes. • 4. Aspirate methanol using Tecan plate washer. • 5. Add 50 μl/well of primary Ab solution, (BD anti-SMN Ab diluted to 125 ng/ml in 10% fetal goat serum PBST), using multi-drop. • 6. Seal plates and incubate overnight at room temperature. Day 3 • 1. After 16-20 hrs incubation, wash plates with PBST 2× using Tecan plate washer. • 2. Add 50 μl of secondary Ab solution, (Santa Cruz goat anti-Mouse-HRP diluted to 67 ng/ml in 10% fetal goat serum PBST). • 3. Seal plates and incubate 2 hrs at room temperature. • 4. Wash plates with PBST 2× using Tecan plate washer. • 5. Add 50 μl/well 10% fetal goat serum PBST. • 6. Incubate in 4° C. refrigerator for 10 minutes. • 7. Aspirate plates using plate washer and add ECL luminescence solution, 20 μl/well. • 8. Measure luminescence on plate reader. Automated Scoring
We scored each compound based on the maximum signal-to-noise ratio (SNR) found among its dose curves. These scores are based on edge-corrected SMN data, using only plates that passed quality control. The untreated level on each plate was found by taking the median of the untreated wells, and for each treated well we calculated a log(T/U) ratio. Each curve was generated in triplicate on each plate, so each point on a compound's dose curve was obtained by determining the median for the replicate points. Each ratio thus has an error estimate from the scatter between the triplicate data points (1.5 times the median absolute deviation from the median). For each dose curve, we calculated the SNR for each data point log(T/U)/error, and chose the maximum point as our indicator of SMN induction activity. Since this is a signal-to-noise score, scores much greater than one indicate significant activity, assuming normal statistics. We decided to use a cutoff signal-to-noise ratio of 6. This selection represents a considerable enrichment towards visually-selected compounds. We identified 100 out of 2000 compounds producing scores>6. This included 13 of the 28 visual selections.
• 1. […] Type 3 reversal of curve hits […]

[2] = system: SMN protein; assay: Western blot of SMN protein in treated cells; format: cell-based, human; details: 72 hours treatment, densitometry, fold change relative to vehicle (DMSO)
Method: Effects on SMN protein levels were also confirmed by western blots. Cells were treated with compound or vehicle for 72 hours. Cell lysates were prepared and analyzed by western blot. SMN protein levels were quantified by densitometry and normalized to an internal control protein (GAPdH or EIF4e) (FIGS. 4-6). The SMN/control ratios shown in FIGS. 4-6 depict the fold change relative to vehicle (DMSO) control.

`NC12CC3CC(CC(C3)C1)C2` [amantadine] was tested, and the SMN protein levels [1] was “increase SMN protein levels” and the “SMN per viable cell (normalized hit)” value [1] was “normalized hits”.
`CC12CC3CC(C)(C1)CC(N)(C3)C2` [memantine, 1-amino-3,5-dimethyl adamantane] was tested, and the SMN protein levels [1] was “increase SMN protein levels”, the “SMN per viable cell (normalized hit)” value [1] was “normalized hits” and the “SMN protein relative to control proteins GAPdH and eIF4E” value [2] was “increases in SMN protein”.

Source: patent publication US20060270742A1, “Compositions and methods for the treatment of neurodegenerative diseases” (priority 2005, published 2006)
